Each structure is given as a SMILES string.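 All cell lines were grown in 96-well plates and treated with compound for 48 hours. GI50 is the concentration that inhibits growth by half. TGI is the concentration that stops growth completely.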

One assay concerns SW-620 colon. Put plainly: DTP human tumour cell line panel, 48 h.
Turning to `COc1ccccc1[N-]C(C1=C([O-])c2ccccc2C1=O)c1ccccc1.COc1ccccc1[N-]C(C1=C([O-])c2ccccc2C1=O)c1ccccc1.[Cu+2]` (centres undefined), the GI50 is 6.08 µM and the TGI was over 100 µM.
`O=C(NCCCCCCNC(=O)c1cccc2ccccc12)c1cccc2ccccc12` gave a TGI of over 100 µM.
On to `COC12C=CC(CC1)c1c(O)ccc(O)c12` (centres undefined), for which the TGI is over 63.8 µM.
Turning to `Nc1ncnc2sc(=S)c3c(c12)CCC3`, the GI50 is 33.5 µM and the TGI was over 100 µM.
In the case of `CC1=C2CCCC2C/C(=N/Nc2ccc([N+](=O)[O-])cc2[N+](=O)[O-])CC1` (centres undefined), the TGI was over 100 µM.
On to `COc1cc2cc(Oc3ccc(NC(=O)Nc4ccc(Cl)c(C(F)(F)F)c4)cc3)c(C)nc2cc1OCCN1CCCCC1`, for which the GI50 was 1.9 µM and the TGI came to 3.48 µM.
Turning to `C=CCC(N[C@H](CO)C(C)C)c1cn(C(=O)OCC)c2ccccc12` (some centres undefined), the GI50 is 27.9 µM and the TGI is over 100 µM.
`CC1CC2C(=O)NC(=O)C2c2[nH]c3ccccc3c21` (centres undefined): the TGI is over 100 µM.
Consider `Cc1ccc2c(c1)C1(C)OC(CC(N)C1O)O2` (centres undefined), for which the TGI was over 100 µM.
The compound `COC(=O)[C@@H]1CSC(=S)N1C(=O)C[C@H]1CC=CC[C@H]1CC(=O)Sc1ccccc1` displayed a TGI of 33.9 µM. This lies in the double-digit micromolar range.
In the case of `COc1cc(Cn2cc3c(c2)-c2oncc2CC3)cc(OC)c1OC`, the GI50 was 0.0327 µM and the TGI was over 100 µM.
On to `CC1(Sc2ccccc2)CN(Cc2ccccc2)C1=O` (centres undefined), for which the TGI was over 100 µM.
The compound `C=C1C(=O)OC2CC3(C)C=CC(=O)C(=C)C3CC12` (centres undefined) gave a TGI of 2.36 µM.
Turning to `COc1cccc(OC(=O)c2ccccc2Nc2ccnc(C(F)(F)F)c2)c1`, the GI50 was 4.37 µM and the TGI is over 100 µM.
`CCOP(=O)(OCC)C1CCCCOC1=O` (centres undefined): the TGI was over 100 µM.

A further assay relates to KM12 colon. Put plainly: DTP human tumour cell line panel, 48 h.
In turn, `CN(C)c1ccc2c(NCCCCCCNc3ccnc4cc(N(C)C)ccc34)ccnc2c1` returned a TGI of over 100 µM.
On to `CCN1C(=O)N(CC)C2C1NN=c1s/c(=C3\C(=O)N(C(C)C)c4ccccc43)c(=O)n12` (centres undefined), for which the GI50 was 0.384 µM and the TGI is over 100 µM.
Take `Nc1cc(=O)[nH]c(SC2=NC(N)CC(O)C2)n1` (centres undefined): the TGI is over 100 µM.
Turning to `CC(=O)[O][Pb]([O]C(C)=O)([c]1ccccc1)[c]1ccccc1`, the GI50 is 12.6 µM and the TGI was over 100 µM.
The compound `CN1CCc2c1nc(-c1ccccc1)c1c2N(C)CC1` returned a TGI of over 100 µM.
Regarding `CCC[CH2][Sn]([CH2]CCC)([O]C(C)=O)[O]C(C)=O`, the GI50 is 1.66 µM and the total growth inhibition concentration (TGI) turned out to be 3.77 µM.
`COC(=O)CCC(=O)N1Cc2cc(C)ccc2N(C(=O)CCC(=O)OC)Cc2cc(C)ccc21` registered a TGI of over 100 µM.
`C=C1C(=O)O[C@H]2C[C@@H](C)[C@@H]3CC(=O)OC[C@@]3(C)CC12` (some centres undefined) had a TGI of 62 µM.
`CS(=O)(=O)CC1=Nc2nnc(CCCCCCCc3nnc4n3C(=O)C(CS(C)(=O)=O)=N4)n2C1=O` displayed a TGI of over 100 µM.
As to `COc1ccccc1[N-]C(C1=C([O-])c2ccccc2C1=O)c1ccccc1.COc1ccccc1[N-]C(C1=C([O-])c2ccccc2C1=O)c1ccccc1.[Cu+2]` (centres undefined), the GI50 is 5.76 µM and the TGI was determined as 43.1 µM.
Compound `O=C(NCCCCCCNC(=O)c1cccc2ccccc12)c1cccc2ccccc12` registered a TGI of over 100 µM.
For `COC12C=CC(CC1)c1c(O)ccc(O)c12` (centres undefined), the TGI was over 100 µM.
On to `Nc1ncnc2sc(=S)c3c(c12)CCC3`, for which the GI50 was 40.7 µM and the total growth inhibition concentration (TGI) is over 100 µM.
`CC1=C2CCCC2C/C(=N/Nc2ccc([N+](=O)[O-])cc2[N+](=O)[O-])CC1` (centres undefined) gave a TGI of over 100 µM.
Regarding `COc1cc2cc(Oc3ccc(NC(=O)Nc4ccc(Cl)c(C(F)(F)F)c4)cc3)c(C)nc2cc1OCCN1CCCCC1`, the GI50 was 1.64 µM and the TGI turned out to be 3.09 µM.
Take `C=CCC(N[C@H](CO)C(C)C)c1cn(C(=O)OCC)c2ccccc12` (some centres undefined): the GI50 was 21.7 µM and the TGI was 59.7 µM.
Compound `CC1CC2C(=O)NC(=O)C2c2[nH]c3ccccc3c21` (centres undefined) returned a TGI of over 100 µM.
`Cc1ccc2c(c1)C1(C)OC(CC(N)C1O)O2` (centres undefined) gave a TGI of over 100 µM.
In turn, `COC(=O)[C@@H]1CSC(=S)N1C(=O)C[C@H]1CC=CC[C@H]1CC(=O)Sc1ccccc1` registered a total growth inhibition concentration (TGI) of 34.1 µM. This lies in the double-digit micromolar range.
Regarding `COc1cc(Cn2cc3c(c2)-c2oncc2CC3)cc(OC)c1OC`, the GI50 is 0.0312 µM.
`CC1(Sc2ccccc2)CN(Cc2ccccc2)C1=O` (centres undefined) displayed a TGI of over 100 µM.
Compound `C=C1C(=O)OC2CC3(C)C=CC(=O)C(=C)C3CC12` (centres undefined) yielded a TGI of 5.57 µM.
`CCOP(=O)(OCC)C1CCCCOC1=O` (centres undefined) registered a TGI of over 100 µM.

A further assay deals with MALME-3M melanoma. Put plainly: DTP human tumour cell line panel, 48 h.
As for `CN(C)c1ccc2c(NCCCCCCNc3ccnc4cc(N(C)C)ccc34)ccnc2c1`, the TGI was found to be 12.9 µM.
For the compound `CCN1C(=O)N(CC)C2C1NN=c1s/c(=C3\C(=O)N(C(C)C)c4ccccc43)c(=O)n12` (centres undefined), the GI50 was 1.18 µM and the concentration for total growth inhibition (TGI) was over 100 µM.
On to `Nc1cc(=O)[nH]c(SC2=NC(N)CC(O)C2)n1` (centres undefined), for which the TGI is over 100 µM.
As for `CC(=O)[O][Pb]([O]C(C)=O)([c]1ccccc1)[c]1ccccc1`, the GI50 was over 100 µM and the TGI is over 100 µM.
Turning to `CN1CCc2c1nc(-c1ccccc1)c1c2N(C)CC1`, the TGI was over 100 µM.
On to `CCC[CH2][Sn]([CH2]CCC)([O]C(C)=O)[O]C(C)=O`, for which the GI50 was 0.994 µM and the TGI was determined as 2.36 µM.
In turn, `C=C1C(=O)O[C@H]2C[C@@H](C)[C@@H]3CC(=O)OC[C@@]3(C)CC12` (some centres undefined) had a TGI of 35 µM.
Compound `CS(=O)(=O)CC1=Nc2nnc(CCCCCCCc3nnc4n3C(=O)C(CS(C)(=O)=O)=N4)n2C1=O` registered a TGI of over 100 µM.
`COc1ccccc1[N-]C(C1=C([O-])c2ccccc2C1=O)c1ccccc1.COc1ccccc1[N-]C(C1=C([O-])c2ccccc2C1=O)c1ccccc1.[Cu+2]` (centres undefined): the GI50 is 6.85 µM and the TGI is over 100 µM.
For the compound `O=C(NCCCCCCNC(=O)c1cccc2ccccc12)c1cccc2ccccc12`, the TGI was over 100 µM.
Regarding `COC12C=CC(CC1)c1c(O)ccc(O)c12` (centres undefined), the TGI was over 100 µM.
As to `Nc1ncnc2sc(=S)c3c(c12)CCC3`, the GI50 was 66.4 µM and the TGI was over 100 µM.
As for `CC1=C2CCCC2C/C(=N/Nc2ccc([N+](=O)[O-])cc2[N+](=O)[O-])CC1` (centres undefined), the TGI was over 100 µM.

The values above are taken from PubChem BioAssay (NCI).
